Results from PMC3554599, “Hydrophobic analogues of rhodamine B and rhodamine 101: potent fluorescent probes of mitochondria in living C. elegans” (Beilstein Journal of Organic Chemistry, 2012).
Read-outs that look alike come from different tables or passages of the source. Each block holds one molecule with its values, some of them ahead of it.

Legend:
[1] = test system: mitochondria in living C. elegans; test: Confocal laser scanning microscopy of living adult C. elegans treated with fluorophores; assay type: in vivo; settings: for bioaccumulation among the fluorophores examined: 100 pM or 1 nM, 20× objective; for selectivity of intracellular staining: living C. elegans; for time to observable fluorescence in some animals / time until most animals became fluorescent: living adult C. elegans
[2] = log D by fluorescence-based shake-flask method, octanol/phosphate buffer pH 7.4; assay type: physicochemical; settings: for enhanced partitioning into octanol compared with aqueous buffer, relative to parent compound: methyl analogue vs parent rhodamine B / rhodamine 101; for logD: octanol/phosphate buffer (1:1), octanol/buffer pH 7.4, fluorescence-based shake-flask, 24 h, 25 °C
Method: Values of log D were measured by dissolution of solids in 1:1 octanol/phosphate buffer (4 mL total volume, 5 mM phosphate, pH 7.4) to provide 5 mM solutions of the fluorophore. Samples were shaken for 24 h at 25 °C to equilibrate. […] Aliquots of these fractions were diluted in octanol (derived from the top fraction) or buffer (derived bottom fraction) to generate stock solutions (10×) appropriate for analysis. These stock solutions were further diluted 10-fold and analyzed in a solvent mixture comprising ethanol (80%), octanol (10%), and phosphate buffer (10%, pH 7.4). The ratio of fluorescence emission at λmax was used to calculate log D.

[3] = Molar extinction coefficient by linear regression of absorbance; assay type: physicochemical
Method: (§1) The red-shifted spectra of HR101 10 compared with HRB 9 can be explained by greater delocalization of the lone pairs on nitrogen due to restricted rotation about C–N bonds conferred by the fused rings of 10. By using the method of Williams, the quantum yields of 9 and 10 were determined relative to rhodamine B (5) and rhodamine 6G (7, Figure 3, panels A and B), and the extinction coefficients of these compounds were quantified (Figure 3, panel C). The replacement of the carboxylate of rhodamine B (5) and rhodamine 101 (8) with a methyl group slightly red shifted the absorbance and emission spectra in methanol (5 nm and 8 to 9 nm, respectively). […] Additionally, a modest reduction in quantum yield of ~0.3 for both fluorophores was observed.
(§2) Figure 3 Linear regression used to determine spectroscopic parameters of HRB 9 and HR101 10 in MeOH. Panels A and B: Determination of quantum yields relative to rhodamine B (5) and rhodamine 6G (7). Panel C: Quantification of molar extinction coefficients. TEXT PRINTED IN THE PICTURE: (A) RhB 5: Φ = 0.69 | (A) Rh6G 7: Φ = 0.93 | (B) HRB 9: Φ = 0.39 | (B) HR101 10: Φ = 0.60 | (C) HRB 9: ε555 nm = 83,000 M^-1 cm^-1 | (C) HR101 10: ε576 nm = 107,000 M^-1 cm^-1

[4] = Quantum yield by the method of Williams in MeOH; assay type: physicochemical; settings: relative to rhodamine B and rhodamine 6G
Method: as §1, §2

C. elegans = settings: N2, C. elegans, in vivo, 2 h
[5] = octanol/neutral buffer, cited from earlier work
[6] = MeOH; cited from earlier work
[7] = design: method as in PMID 15571431; settings: 545 nm in ethanol; cited from earlier work

enhanced partitioning into octanol compared with aqueous buffer, relative to parent compound [2]: ≥ 10 fold
logD [2]: 6.2
molar extinction coefficient ε576 nm ([3]; 576 nm in MeOH): 107,000 M^-1 cm^-1
quantum yield Φ [4]: 0.60
Molecule: Cc1ccccc1C1=c2cc3c4c(c2Oc2c1cc1c5c2CCCN5CCC1)CCC[N+]=4CCC3 [HR101 10, 16-(2-Methylphenyl)-3-oxa-9,23-diazaheptacyclo[17.7.1.1^{5,9}.0^{2,17}.0^{4,15}.0^{23,27}.0^{13,28}]octacosa-1(27),2(17),4,9(28),13,15,18-heptaen-9-ium]
bioaccumulation among the fluorophores examined ([1]; 2 h): highest bioaccumulation
selectivity of intracellular staining ([1]; 2 h): most specific mitochondrial stains
time to observable fluorescence in some animals [1]: ≤ 30 min
time until most animals became fluorescent [1]: ≤ 2 h
concentration conferring some toxicity (C. elegans): ≥ 1000 µM

Molecule: COC(=O)c1ccccc1-c1c2ccc(=N)cc-2oc2cc(N)ccc12 [Rhodamine 123 (4), rhodamine 123]
log D octanol/buffer ([5]; listed as rhodamine 123 (4)): −0.62
log D octanol/buffer ([5]; ref 9): −0.6
log D octanol/buffer ([5]; ref 37): 0.5

Molecule: CC/N=c1\cc2oc3cc(NCC)c(C)cc3c(-c3ccccc3C(=O)OCC)c-2cc1C [Rhodamine 6G (7), rhodamine 6G]
quantum yield Φ (standard) [6]: 0.93
selectivity of intracellular staining ([1]; 2 h): most specific mitochondrial stains
log D octanol/buffer ([5]; ref 37): 2.1 [37]

Molecule: CCOC(=O)c1ccccc1-c1c2ccc(=[N+](CC)CC)cc-2oc2cc(N(CC)CC)ccc12 [Basic Violet 11 (6), basic violet 11, reference compound]
bioaccumulation among the fluorophores examined ([1]; 2 h): highest bioaccumulation
selectivity of intracellular staining ([1]; 2 h): low selectivity

Molecule: rhodamine B [Rhodamine B (5)]
quantum yield Φ (standard) [6]: 0.69
molar extinction coefficient [7]: 106,000 M^−1 cm^−1
log D octanol/buffer ([5]; ref 46): 2.3 [46]

enhanced partitioning into octanol compared with aqueous buffer, relative to parent compound [2]: ≥ 10 fold
logD [2]: 5.9
molar extinction coefficient ε555 nm ([3]; 555 nm in methanol): 83,000 M^-1 cm^-1
quantum yield Φ [4]: 0.39
Molecule: CCN(CC)c1ccc2c(-c3ccccc3C)c3ccc(=[N+](CC)CC)cc-3oc2c1 [HRB 9, 6-(Diethylamino)-N,N-diethyl-9-(2-methylphenyl)-3H-xanthen-3-imine]
bioaccumulation among the fluorophores examined ([1]; 2 h): highest bioaccumulation
selectivity of intracellular staining ([1]; 2 h): most specific mitochondrial stains
time to observable fluorescence in some animals [1]: ≤ 30 min
time until most animals became fluorescent [1]: ≤ 2 h
concentration conferring some toxicity (C. elegans): ≥ 1000 µM

logD [2]: 5.2
Molecule: O=C([O-])c1ccccc1C1=c2cc3c4c(c2Oc2c1cc1c5c2CCCN5CCC1)CCC[N+]=4CCC3 [Rhodamine 101 (8), rhodamine 101]
penetration into germline, cells and tissues ([1]; 60× objective, 2 h, rhodamine 101 at 100-fold higher concentration than HRB 9 and HR101 10): did not penetrate into the germline
